Reference: US20230233586A1, “COMPOUNDS AND METHODS FOR TREATING FUNGAL INFECTIONS” (Amplyx Pharmaceuticals, Inc., priority 2020, published 2023)

What was measured:
[1] = biological target: fungal glycosylphosphatidylinositol (GPI)-anchored wall transfer protein 1 (GWT1) enzyme (Saccharomyces cerevisiae, UniProt P47026); assay: Inhibition of fungal GWT1 enzyme; format: biochemical
From the text: (§1) Compound 1A inhibits the fungal glycosylphosphatidylinositol (GPI)-anchored wall transfer protein 1 (GWT1) enzyme, a highly conserved inositol acylase that catalyzes an early step in the GPI-anchored biosynthesis pathway. This inhibition has pleiotropic effects on the fungal cell due to inhibition of cell wall mannoprotein localization, which comprises cell wall integrity, biofilm formation, germ tube formation, and fungal growth.

[2] = biological target: T1, phosphatidylinositol glycan anchor biosynthesis class W (PIGW) protein (Homo sapiens, UniProt Q7Z7B1); assay: Inhibition of PIGW, closest mammalian ortholog of GWT1; format: biochemical; conditions: closest mammalian ortholog of fungal GWT1
T1 sequence (Q7Z7B1 1-504): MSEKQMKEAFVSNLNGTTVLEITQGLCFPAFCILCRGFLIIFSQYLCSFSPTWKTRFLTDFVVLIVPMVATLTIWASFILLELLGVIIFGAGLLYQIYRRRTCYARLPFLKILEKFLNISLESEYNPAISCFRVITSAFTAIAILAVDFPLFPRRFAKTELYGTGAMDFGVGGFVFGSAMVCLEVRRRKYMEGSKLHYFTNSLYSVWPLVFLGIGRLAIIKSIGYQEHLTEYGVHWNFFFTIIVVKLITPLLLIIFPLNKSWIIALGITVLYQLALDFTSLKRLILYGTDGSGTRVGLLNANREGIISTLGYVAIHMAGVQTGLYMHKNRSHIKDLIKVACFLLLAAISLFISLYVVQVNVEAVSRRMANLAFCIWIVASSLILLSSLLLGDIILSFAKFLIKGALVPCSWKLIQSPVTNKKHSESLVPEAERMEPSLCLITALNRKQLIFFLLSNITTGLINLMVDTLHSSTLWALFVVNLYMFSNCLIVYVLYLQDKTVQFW
From the text: as §1

[3] = tested on: Candida spp., Cryptococcus spp., Aspergillus spp., Scedosporium spp., Fusarium spp., and some Mucorales fungi; assay: In vitro antifungal activity; format: cell-based; conditions: including azole- and echinocandin-resistant strains
[4] = tested on: clinical isolates of rare mold infections and rare yeast infections; assay: Antifungal activity against clinical isolates of rare mold and rare yeast infections; format: cell-based; conditions: broad range of clinical isolates of rare mold and rare yeast infections
From the text: These rare mold and rare yeast species generally pose no threat to healthy subjects, but can lead to invasive mold infections in immunocompromised individuals.

[5] = tested on: Aspergillus fumigatus, Scedosporium prolificans, and Fusarium solani; assay: 5-fluorouracil immunosuppressed mice with IMIs; format: in vivo
[6] = tested on: A. fumigatus, S. apiospermum, F. solani, and Rhizopus spp.; assay: Cyclophosphamide and cortisone acetate immunosuppressed mice with IMIs; format: in vivo
[7] = Phase 1 studies in healthy volunteers, safety and tolerability; format: in vivo, human
From the text: In Phase 1 clinical studies of compound 1, the safety, tolerability, and PK of single and multiple ascending doses administered intravenously (IV) and orally (PO) have been studied. To date, a total of 197 healthy volunteers and 21 patients with acute myeloid leukemia (AML) have received compound 1 across 5 Phase 1 studies. The duration of the multiple-dose regimens in these studies was 7, 14, and 42 days (6 weeks).
The majority of the TEAEs were mild, transitory, and resolved without intervention. […] This IV dose regimen is identical to the IV dose regimen that will be used in this study. […] This PO-dose regimen is higher than the 700 mg PO dose that will be used in this study.

Candida spp. [8] = assay: Open-label study in non-neutropenic patients with candidemia; format: in vivo, human
Method: Suspicion of antifungal-resistant candidemia is sufficient and subsequent documented resistance is not required for enrollment. The Study Drug Treatment Period will be up to a maximum of 14 days (inclusive of the loading dose [Study Day 1]). […] There will be a Follow-up Period of 4 weeks (+4 days) after EOT. The total duration of participation in the study is up to approximately 7.5 weeks (inclusive of the Screening Period [≤96 hours prior to Baseline]).
Patients with a yeast identified in a blood culture or a positive rapid diagnostic method are eligible to be consented and screened for the study. Patients must have at least 1 positive blood test for Candida spp. (or yeast suspected to be Candida) for a diagnosis of candidemia to be considered for enrollment into the study. Patients with a positive blood culture showing yeast suspected to be Candida must have identification of Candida spp. from positive blood culture confirmed prior to dosing. Screening and Baseline procedures and the start of Compound 1 study drug will be initiated within 96 hours from the time that the SOC blood sample for the Candida spp. positive culture or rapid diagnostic test was drawn. Patients with 2 days (>48 hours) equivalent of prior systemic antifungal treatment at approved doses to treat the current episode of candidemia within 96 hours before first dose will be excluded.
On Study Day 1 (or over the first 24 hours if started in the evening), a 1000 mg Compound 1 loading dose will be administered over 3 hours by IV infusion BID. On Study Days 2 and 3 of study drug, a 600 mg Compound 1 maintenance dose will be administered over 3 hours by IV infusion QD. On Study Day 4 and onward, the Compound 1 maintenance dose will be administered as either 600 mg Compound 1 IV infusion QD over 3 hours or 700 mg PO QD. […] Study drug will be administered for a maximum of 14 days. […] Candida spp. bloodstream infection will be monitored by daily blood culture during Study Drug Treatment until 2 consecutive blood cultures are negative, and at EOST, EOT, and 2 and 4 weeks after EOT, or Early Termination. Simultaneously drawn blood samples will be collected for Candida testing by T2 magnetic resonance (T2MR) assay at Baseline, during Study Drug Treatment, and EOST, or Early Termination. Other cultures, histopathology, and imaging tests to assess the site(s) and extent of candidemia infection at other sites will be conducted as clinically indicated, and the results should be recorded in the electronic Case Report Form (eCRF). The management of intravascular catheters, intravascular devices, and, if applicable, any drains will be recorded, including any associated microbiology results. Patients will be monitored for safety throughout the duration of the study.
On Study Day 1 (or over the first 24 hours if started in the evening), a 1000 mg Compound 1 loading dose will be administered over 3 hours by IV infusion BID. On Study Days 2 and 3 of study drug, a 600 mg Compound 1 maintenance dose will be administered over 3 hours by IV infusion QD. On Study Day 4 and onward, the Compound 1 maintenance dose will be administered as either 600 mg Compound 1 IV infusion QD over 3 hours or 700 mg PO QD. […] Study drug will be administered for a maximum of 14 days (inclusive of the loading dose [Study Day 1]). Tablets are to be administered at the same time each day, whole, and taken by mouth with water within 30 minutes of being removed from the refrigerator. No splitting or crushing of tablets is allowed.
If applicable, an assessment of efficacy will also be made at the end of this antifungal treatment at EOT.
Eradication is defined as a negative blood culture(s) for Candida spp. in the absence of additional antifungal therapy (except for protocol-allowed step-down treatment [e.g., fluconazole]) through EOT

Candida spp. [9] = assay: In vitro activity against Candida spp. isolates from the study; format: cell-based; conditions: including isolates resistant to other antifungal agents
From the text: A total of 21 patients were enrolled in the study: 20 were included in the mITT. Median duration of Compound 1 therapy was 11 days (range 5 to 14). All patients received IV Compound 1, 48% (10/21) received PO Compound 1.

Tissue distribution = format: in vivo; conditions: IV and PO formulations
From the text: Compound 1 has a novel mechanism of action with broad spectrum activity against Candida spp. (yeast) and Aspergillus spp. (mold), including activity against polyene and azole-resistant strains of Aspergillus spp. […] Compound 1 has the potential to be used as a first-line agent for the treatment of IMIs through a unique mechanism of action. Thus, compound 1 has potential to fill an unmet need for patients with limited or no antifungal treatment options due to documented/anticipated resistance, contraindication, intolerance, or lack of clinical response to standard of care (SOC) antifungal therapy.

[10] = in vivo
[11] = patients with renal insufficiency
[12] = patients with renal insufficiency (n=14)

Chain of fungal glycosylphosphatidylinositol (GPI)-anchored wall transfer protein 1 (GWT1) enzyme (P47026 whole entry): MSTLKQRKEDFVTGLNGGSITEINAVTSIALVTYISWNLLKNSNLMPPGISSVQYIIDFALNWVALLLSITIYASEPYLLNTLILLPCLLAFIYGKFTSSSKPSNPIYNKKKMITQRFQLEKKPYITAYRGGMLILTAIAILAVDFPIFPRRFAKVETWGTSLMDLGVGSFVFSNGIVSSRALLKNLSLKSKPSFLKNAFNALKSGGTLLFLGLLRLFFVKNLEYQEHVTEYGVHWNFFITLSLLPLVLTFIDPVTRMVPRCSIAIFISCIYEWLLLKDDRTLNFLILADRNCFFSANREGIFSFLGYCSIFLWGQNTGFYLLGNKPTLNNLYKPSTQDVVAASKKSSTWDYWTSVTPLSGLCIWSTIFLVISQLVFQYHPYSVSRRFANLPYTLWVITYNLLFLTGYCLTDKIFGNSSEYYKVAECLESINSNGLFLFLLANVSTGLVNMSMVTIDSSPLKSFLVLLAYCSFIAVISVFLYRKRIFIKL

With Nc1ncccc1-c1cc(Cc2ccc(COc3ccccn3)cc2)no1 [Compound 1A] the “inhibition of fungal GWT1 enzyme” value [1] was “inhibits”, the “inhibition of PIGW protein” value [2] was “does not inhibit” and the “in vitro antifungal activity” value [3] was “broad in vitro antifungal activity”. The “antifungal activity against clinical isolates” value [4] was “demonstrated antifungal activity”, the “pulmonary fungal colony counts” value [5] was “reduced pulmonary fungal colony counts” and the survival rates [5] was “statistically significantly improved survival rates”.

In the case of Nc1c(-c2cc(Cc3ccc(COc4ccccn4)cc3)no2)ccc[n+]1COP(=O)([O-])O [Compound 1], the “pulmonary fungal colony counts” value [5] is reported as “reduced pulmonary fungal colony counts”, the survival rates [5] is reported as “statistically significantly improved survival rates” and the fungal burden [6] is reported as “reduced fungal burden”. For the same molecule, the survival rates [6] was “statistically significantly improved survival rates”, the DLTs ([7]; 2 Phase 1 studies, healthy volunteers) was “No DLTs were observed” and the safety and tolerability ([7]; 2 Phase 1 studies, healthy volunteers, IV and PO formulations) was “safe and well tolerated”. For the same molecule, the safety and tolerability ([7]; FIH Phase 1: 1000 mg IV 2-hour infusion BID Day 1, then 600 mg IV 1-hour infusion QD Days 2 through 7) was “safe and well tolerated”, the safety and tolerability ([7]; second Phase 1 study: 1000 mg PO QD Days 1 through 14) was “safe and well tolerated” and the “DRC-assessed success rate at EOST” value (Candida spp. [8]; mITT (16/20)) was 80%. The “Survival at day 30” value (Candida spp. [8]; mITT (17/20)) was 85%, the tolerability (Candida spp. [8]; patients with candidemia, up to 14 days) was “well-tolerated with no treatment-related serious adverse events or discontinuations” and the “effect of renal impairment on exposure” value (Candida spp. [8]; [11]) was “did not increase exposure”. For the same molecule, the treatment-related adverse events (Candida spp. [8]; [11]) was “no treatment-related adverse events”, the “Treatment success rate at EOST” value (Candida spp. [8]; patients with renal insufficiency (12/14)) was 86% and the “worsening of renal function at EOST” value (Candida spp. [8]; [12]) was “None”. The “worsening of renal function during the follow-up period” value (Candida spp. [8]; [12]) was 4 patients, the “in vitro activity against Candida spp. from the study” value (Candida spp. [9]) was “potent in vitro activity” and the tissue distribution (Tissue distribution) was “wide-tissue distribution, including the eye and central nervous system”. The “conversion of prodrug to compound 1A” value [10] was “rapidly converted in vivo”.
